According to PMC6253839, “Screening of Agelasine D and Analogs for Inhibitory Activity against Pathogenic Protozoa; Identification of Hits for Visceral Leishmaniasis and Chagas Disease” (Molecules, 2009):
Values after ≈ are worked out from the molar mass of the structure shown. “Also recorded” adds a separate entry of the source.

Test system: P. falciparum GHA-strain (chloroquine-suceptible)
Experiment: Antiplasmodial activity, Malstat method
Type: cell-based, Plasmodium falciparum
Details: Plasmodium falciparum; GHA-strain, 72 h; TDR hit criterion <0.2 μg/mL; read-out: P. falciparum IC50

Structure (SMILES) | IC50
CO/N=c1\[n-]cnc2c1[n+](C/C=C(\C)CC/C=C(\C)CC/C=C(\C)CCC=C(C)C)cn2C [Compound 1d] | 0.1 µg/mL (≈ 0.221 µM)
CC(C)=CCC/C(C)=C/CC/C(C)=C/CC/C(C)=C/C[n+]1cn(C)c2nc[n-]/c(=N\OCc3ccccc3)c21 [Compound 1e] | 4.2 µg/mL (≈ 7.96 µM)
CC(C)=CCC/C(C)=C/CC/C(C)=C/CC/C(C)=C/C[n+]1cn(C)c2nc[n-]/c(=N\OC(C)(C)C)c21 [Compound 1f] | 0.26 µg/mL (≈ 0.527 µM)
CO/N=c1\[n-]cnc2c1[n+](C/C=C(\C)CC/C=C(\C)CC/C=C(\C)CCC=C(C)C)cn2CCC#N [Compound 1g] | 5.3 µg/mL (≈ 10.8 µM)
CC(C)=CCC/C(C)=C/CC/C(C)=C/CC/C(C)=C/C[n+]1cn(CCC#N)c2nc[n-]/c(=N\OCc3ccccc3)c21 [Compound 1h] | 10 µg/mL (≈ 17.6 µM)
CO/N=c1\[n-]cnc2c1[n+](C/C=C(\C)CC/C=C(\C)CC/C=C(\C)CCC=C(C)C)cn2C(c1ccccc1)c1ccccc1 [Compound 1i] | 3.5 µg/mL (≈ 5.8 µM)
CO/N=c1\[n-]cnc2c1[n+](C/C=C(\C)CCCC(C)CCCC(C)CCCC(C)C)cn2C (stereo not shown) [Compound 1j] | 0.3 µg/mL (≈ 0.655 µM)

Same assay, conditions: criterion IC50 <0.2 μg/mL with SI >20

Structure (SMILES) | antimalaria hit according to TDR
CO/N=c1\[n-]cnc2c1[n+](C/C=C(\C)CC/C=C(\C)CC/C=C(\C)CCC=C(C)C)cn2C [Compound 1d] | met this requirement

Test system: Leishmania infantum amastigotes (MHOM/ET 67)
Experiment: Antileishmanial activity, amastigotes in primary peritoneal mouse macrophages
Type: cell-based
Details: not given
Method: Leishmania infantum amastigotes (MHOM/ET 67) were collected from an infected donor hamster and used to infect primary peritoneal mouse macrophages. To determine in vitro antileishmanial activity, 3×10^4 macrophages were seeded in each well of a 96-well plate. After 48 h outgrowth, 5×10^4 amastigotes/well were added and incubated for 2 h at 37 °C. […] Parasite burdens were determined microscopically after Giemsa staining and expressed as a percentage of the blank controls without compound.

Structure (SMILES) | activity against L. infantum, in words
CC(C)=CCC/C(C)=C/CC/C(C)=C/CC/C(C)=C/C[n+]1cn(C)c2nc[n-]/c(=N\OC(C)(C)C)c21 [Compound 1f] | potent inhibitors
CO/N=c1\[n-]cnc2c1[n+](C/C=C(\C)CCCC(C)CCCC(C)CCCC(C)C)cn2C (stereo not shown) [Compound 1j] | potent inhibitors

Same assay, conditions: Leishmania infantum, Macrophage; intracellular amastigotes, 120 h; TDR hit criterion <0.5 μg/mL; read-out: L. infantum IC50

Structure (SMILES) | IC50
CO/N=c1\[n-]cnc2c1[n+](C/C=C(\C)CC/C=C(\C)CC/C=C(\C)CCC=C(C)C)cn2C [Compound 1d] | 0.093 µg/mL (≈ 0.206 µM)
CC(C)=CCC/C(C)=C/CC/C(C)=C/CC/C(C)=C/C[n+]1cn(C)c2nc[n-]/c(=N\OCc3ccccc3)c21 [Compound 1e] | 5.4 µg/mL (≈ 10.2 µM)
CC(C)=CCC/C(C)=C/CC/C(C)=C/CC/C(C)=C/C[n+]1cn(C)c2nc[n-]/c(=N\OC(C)(C)C)c21 [Compound 1f] | 0.27 µg/mL (≈ 0.547 µM)
CO/N=c1\[n-]cnc2c1[n+](C/C=C(\C)CC/C=C(\C)CC/C=C(\C)CCC=C(C)C)cn2CCC#N [Compound 1g] | 12 µg/mL (≈ 24.5 µM)
CC(C)=CCC/C(C)=C/CC/C(C)=C/CC/C(C)=C/C[n+]1cn(CCC#N)c2nc[n-]/c(=N\OCc3ccccc3)c21 [Compound 1h] | 18 µg/mL (≈ 31.8 µM)
CO/N=c1\[n-]cnc2c1[n+](C/C=C(\C)CC/C=C(\C)CC/C=C(\C)CCC=C(C)C)cn2C(c1ccccc1)c1ccccc1 [Compound 1i] | 1.2 µg/mL (≈ 1.99 µM)
CO/N=c1\[n-]cnc2c1[n+](C/C=C(\C)CCCC(C)CCCC(C)CCCC(C)C)cn2C (stereo not shown) [Compound 1j] | 0.23 µg/mL (≈ 0.503 µM)

Same assay, conditions: criterion IC50 <0.5 μg/mL and SI >20

Structure (SMILES) | hit for leishmaniasis according to TDR
CO/N=c1\[n-]cnc2c1[n+](C/C=C(\C)CC/C=C(\C)CC/C=C(\C)CCC=C(C)C)cn2C [Compound 1d] | meets the definition of a hit; also recorded: identified as hits

Test system: Mycobacterium tuberculosis
Experiment: not given
Details: previously shown; cited from earlier work

Structure (SMILES) | antibacterial activity against M. tuberculosis, in words
CO/N=c1\[n-]cnc2c1[n+](C/C=C(\C)CC/C=C(\C)CC/C=C(\C)CCC=C(C)C)cn2C [Compound 1d] | inhibition of Mycobacterium tuberculosis

Test system: T. cruzi Tulahuen CL2 strain (nifurtimox-sensitive)
Experiment: Antitrypanosomal activity, T. cruzi on MRC-5 cells, β-galactosidase readout
Type: cell-based, Trypanosoma cruzi
Details: Trypanosoma cruzi, TULAHUEN, MRC5, 168 h, read-out: T. cruzi IC50
Method: To determine in vitro anti-trypanosomal activity, 4×10^3 MRC-5 cells and 4×10^4 parasites were added to each well of test plate with compound. […] The color reaction was read at 540 nm and absorbance values were expressed as a percentage of the blank controls.

Structure (SMILES) | IC50
CO/N=c1\[n-]cnc2c1[n+](C/C=C(\C)CC/C=C(\C)CC/C=C(\C)CCC=C(C)C)cn2C [Compound 1d] | 0.11 µg/mL (≈ 0.244 µM)
CC(C)=CCC/C(C)=C/CC/C(C)=C/CC/C(C)=C/C[n+]1cn(C)c2nc[n-]/c(=N\OCc3ccccc3)c21 [Compound 1e] | 1.4 µg/mL (≈ 2.65 µM)
CC(C)=CCC/C(C)=C/CC/C(C)=C/CC/C(C)=C/C[n+]1cn(C)c2nc[n-]/c(=N\OC(C)(C)C)c21 [Compound 1f] | < 0.12 µg/mL
CO/N=c1\[n-]cnc2c1[n+](C/C=C(\C)CC/C=C(\C)CC/C=C(\C)CCC=C(C)C)cn2CCC#N [Compound 1g] | 0.81 µg/mL (≈ 1.65 µM)
CC(C)=CCC/C(C)=C/CC/C(C)=C/CC/C(C)=C/C[n+]1cn(CCC#N)c2nc[n-]/c(=N\OCc3ccccc3)c21 [Compound 1h] | 3 µg/mL (≈ 5.29 µM)
CO/N=c1\[n-]cnc2c1[n+](C/C=C(\C)CC/C=C(\C)CC/C=C(\C)CCC=C(C)C)cn2C(c1ccccc1)c1ccccc1 [Compound 1i] | 1.3 µg/mL (≈ 2.15 µM)
CO/N=c1\[n-]cnc2c1[n+](C/C=C(\C)CCCC(C)CCCC(C)CCCC(C)C)cn2C (stereo not shown) [Compound 1j] | < 0.11 µg/mL

Same assay, conditions: Trypanosoma cruzi, TULAHUEN, MRC5, read-out: T. cruzi IC50

Structure (SMILES) | IC50
CO/N=c1\[n-]cnc2c1[n+](C/C=C(\C)CC/C=C(\C)CC/C=C(\C)CCC=C(C)C)cn2C [Compound 1d] | < 1 µg/mL

Test system: not listed separately
Experiment: Cytotoxicity assay, resazurin
Type: cell-based
Details: human, MRC-5 SV2 cells (human fetal lung fibroblasts)
Method: Cell viability was determined after addition of resazurin.

Structure (SMILES) | IC50 at 72 h
CO/N=c1\[n-]cnc2c1[n+](C/C=C(\C)CC/C=C(\C)CC/C=C(\C)CCC=C(C)C)cn2C [Compound 1d] | 2 µg/mL (≈ 4.43 µM)
CC(C)=CCC/C(C)=C/CC/C(C)=C/CC/C(C)=C/C[n+]1cn(C)c2nc[n-]/c(=N\OCc3ccccc3)c21 [Compound 1e] | 3.2 µg/mL (≈ 6.06 µM)
CC(C)=CCC/C(C)=C/CC/C(C)=C/CC/C(C)=C/C[n+]1cn(C)c2nc[n-]/c(=N\OC(C)(C)C)c21 [Compound 1f] | 0.26 µg/mL (≈ 0.527 µM)
CO/N=c1\[n-]cnc2c1[n+](C/C=C(\C)CC/C=C(\C)CC/C=C(\C)CCC=C(C)C)cn2CCC#N [Compound 1g] | 0.49 µg/mL (≈ 0.999 µM)
CC(C)=CCC/C(C)=C/CC/C(C)=C/CC/C(C)=C/C[n+]1cn(CCC#N)c2nc[n-]/c(=N\OCc3ccccc3)c21 [Compound 1h] | 3.5 µg/mL (≈ 6.18 µM)
CO/N=c1\[n-]cnc2c1[n+](C/C=C(\C)CC/C=C(\C)CC/C=C(\C)CCC=C(C)C)cn2C(c1ccccc1)c1ccccc1 [Compound 1i] | 0.92 µg/mL (≈ 1.52 µM)
CO/N=c1\[n-]cnc2c1[n+](C/C=C(\C)CCCC(C)CCCC(C)CCCC(C)C)cn2C (stereo not shown) [Compound 1j] | 0.21 µg/mL (≈ 0.459 µM)
